“And” between values parts separate entries of the source, which are not always exact repeats. Equal values may be shown once.
Experiments:
Format in all cases: physicochemical
[1] = Stability of anhydrous DHEA-S and DHEA-S dihydrate with and without lactose (HPLC, DHEA formed)
Excerpt: These conditions were used to stress the formulation in order to predict its long-term stability results.
The primary degradant is dehydroepiandrosterone or DHEA. […] The materials on accelerated storage become more cohesive with time as evidenced by clumping during sample weighing for chemical analysis. […] This is a considerable disadvantage since lactose is the most commonly used inhalation excipient for dry powder formulations. Continuing with the virtually anhydrous form would mean limiting formulations to neat powder or undertaking more comprehensive safety studies to use a novel excipient.

[2] = Short-term solution stability; conditions: 7.5 mg/mL in 0.12% NaCl, room temperature
Experimental: Stability Studies. […] Aliquots of this solution are filled into clear glass vials and stored at room temperature (24-26° C.) and at 40° C. The samples are checked daily for DHEA-S content, DHEA content, and appearance. For each time point, duplicate samples are withdrawn and diluted from each vial.

Solubility of DHEA-S = conditions: 20 mM Na+ (0.12% NaCl), Ksp of 1316 mM^2, 15° C.
Excerpt: Inhalation of pure water can produce a cough stimulus.

SMILES | water content ([1]; after accelerated storage, one week at 50° C.) | water content ([1]; starting value) | solution stability [2] | calculated DHEA-S concentration (solubility) (Solubility of DHEA-S)
CC12CCC3C(CC=C4CC(OS(=O)(=O)[O-])CCC43C)C1CCC2=O.[Na+] (stereo not shown) [DHEA-S Dihydrate, dehydroepiandrosterone sodium sulfate dihydrate] | 8.66% | 8.8% |  | 
C[C@]12CC[C@H](OS(=O)(=O)[O-])CC1=CC[C@@H]1[C@@H]2CC[C@]2(C)C(=O)CC[C@@H]12.[Na+] [DHEA-S, sodium dehydroepiandrostenone sulfate] |  |  | stable for at least one day | 27.5 mM and 10.7 mg/mL
